The values below come from publication PMC10058050, “A Bitter Taste Receptor as a Novel Molecular Target on Cancer-Associated Fibroblasts in Pancreatic Ductal Adenocarcinoma” (Pharmaceuticals, 2023).

The subject of data set [1] is CXCR2. Particulars: cited from earlier work. From the text:
To further evaluate pharmacodynamics, we characterized CXCR2 inhibition as a surrogate for the delivery of SB225002. Tumors from all groups were fixed and paraffin embedded for immunohistochemistry staining. […] Furthermore, the inhibition of angiogenesis has been cited as a contributing factor to th ...

Data set [2] has as its system KPC mice. Particulars: cited from earlier work. From the text:
CXCR2 antagonists have been explored in non-cancer lung diseases (e.g., NCT01255592, NCT01006616) and in certain cancers such as castration-resistant prostate cancer (NCT03177187) and squamous cell carcinoma of the head and neck (NCT02499328).

Data set [3] has as its system Ki67. The experiment in a line: Ki67 staining of tumor sections (cell proliferation). It counts as in vivo, mouse (athymic nude). The following applies: ImageJ; p < 0.01. The procedure: Tumor sections were blocked for 1 h in blocking buffer, and incubated with FITC-conjugated anti-CD31 (BD biosciences, 1:100, 20 min) then anti-rat secondary (1:250, 20 min), or anti-Ki67 (Abcam, 1:250, 20 min) then anti-rabbit secondary (1:250, 20 min). Images were collected using ZEISS LSM-880 Confocal Laser Scanning Microscope (Carl Zeiss Meditec, Inc., Jena, Germany). Mander’s correlation coefficients were determined using the JACoP plugin in ImageJ (National Institute of Health, Bethesda, MD, USA) for the colocalization analysis. To characterize CD31 and Ki67 expression, the area fraction of the positive pixels was measured for each image using the Measurement Tool in ImageJ. Section averages were entered into Prism to find overall means for each treatment group and tested for statistical significance between groups using the Student’s t-test.
The drug dosage was calculated for each treatment to achieve the same weekly amount of Sb225002 given per animal. Tumor volume was measured with calipers twice weekly until day 19, at which time the tumors were harvested for cell proliferation (Ki67) and angiogenesis (CD31) analysis, and CXCR2 IHC staining.

For data set [4] the following is noted: all dose levels up to 240 mg; cited from earlier work. From the text: While mounting evidence points to a role of bitter taste receptors in cancer epithelial cells and in Tuft cells, this report, is to our knowledge, the first indication that TAS2R9 is expressed on CAFs. The fact that TAS2R9 is overexpressed in 7.33% of human PDAC tissue, and that its expression in pancreatic CAFs is 57-fold higher than in the human dermal fibroblast raises the interesting question of what role TAS2R9 may play in CAFs. In particular, the revelation that TAS2R9 mRNA expression ...

The test system of data set [5] is CAFs isolated from the stroma of PDAC patients. The following applies: cited from earlier work; for Specificity and selectivity for CAFs: CAFs isolated from the stroma of PDAC patients.
Data set [6] has as its system PDAC patient-derived CAFs (TAS2R9). Briefly: Phage display-based pulldown from PDAC patient-derived CAFs with MS/MS identification. The data set is classed as binding, human. Particulars: SDS-PAGE, compared with WT M13KE phage and phAPPIMSV. The procedure:
Thus, we hypothesized that their binding partners could serve as potential cellular markers and therapeutic targets for CAFs. Using a phage display-based functional proteomics approach, wild-type (WT) M13KE phage or phage displaying CAF selective peptides (phHTTIPKV and phAPPIMSV) were incubated with PDAC patient-derived CAFs allowing the phage to serve as “bait.” Phage were chemically modified to crosslink to their cell surface binding partner, then phage pull-down samples were resolved via SDS-PAGE. […] In-proteo ELISA experiments were performed to evaluate the specific binding of phHTTIPKV to recombinant human TAS2R9 (rhTAS2R9). Phage displaying KTLLPTP (phKTLLPTP), a PDAC epithelial cell-specific peptide, served as a negative control. […] Therefore, we pursued validation of TAS2R9 as HTTIPKV’s target and as a novel CAF-selective cell surface marker.
Figure 1 TAS2R9 expression in CAFs isolated from human PDAC. (A) Phage pulldowns from PDAC patient-derived CAFs by the M13Ke (lane 1) and CAF-specific phages, phAPPIMSV and phHTTIPKV (lane 2 and 3). […] (B) 4 × 10^9 pfu phHTTIPKV and a PDAC specific phage, phKTLLPTP, were applied to rhTAS2R9 to determine the absorbance of phage binding to rhTAS2R9 at 650 nm. The absorbance of both phage were normalized to the absorbance detected from rhTAS2R9 bound to the wild-type M13Ke phage. n = 3, * p < 0.05. […]

Data set [7] concerns recombinant human TAS2R9 (rhTAS2R9). Briefly: Phage ELISA on recombinant human TAS2R9 (in-proteo ELISA). It counts as binding. Particulars: 4 × 10^9 pfu phage; absorbance 650 nm, 35 min after TMB; normalized to M13KE; 1 h RT; n = 3, p < 0.05. The procedure: Thus, we hypothesized that their binding partners could serve as potential cellular markers and therapeutic targets for CAFs. Using a phage display-based functional proteomics approach, wild-type (WT) M13KE phage or phage displaying CAF selective peptides (phHTTIPKV and phAPPIMSV) were incubated with PDAC patient-derived CAFs allowing the phage to serve as “bait.” Phage were chemically modified to crosslink to their cell surface binding partner, then phage pull-down samples were resolved via SDS-PAGE. […] In-proteo ELISA experiments were performed to evaluate the specific binding of phHTTIPKV to recombinant human TAS2R9 (rhTAS2R9). Phage displaying KTLLPTP (phKTLLPTP), a PDAC epithelial cell-specific peptide, served as a negative control. […]
Figure 1 TAS2R9 expression in CAFs isolated from human PDAC. […] (B) 4 × 10^9 pfu phHTTIPKV and a PDAC specific phage, phKTLLPTP, were applied to rhTAS2R9 to determine the absorbance of phage binding to rhTAS2R9 at 650 nm. The absorbance of both phage were normalized to the absorbance detected from rhTAS2R9 bound to the wild-type M13Ke phage. n = 3, * p < 0.05. […]
About 100 μL of 0.1 μg/mL rhTAS2R9 (Novus Biological, Littleton, CO, USA) was plated in 96-well plates overnight at 4 °C. […] The absorbance was measured on a microplate reader at 650 nm at 35 min post addition of TMB
A general note: ELISA stands for enzyme-linked immunosorbent assay.

Data set [8] has as its target T1, recombinant human TAS2R9 (rhTAS2R9) (human) (UniProt Q9NYW1).
T1 sequence (Q9NYW1 whole entry, looked up): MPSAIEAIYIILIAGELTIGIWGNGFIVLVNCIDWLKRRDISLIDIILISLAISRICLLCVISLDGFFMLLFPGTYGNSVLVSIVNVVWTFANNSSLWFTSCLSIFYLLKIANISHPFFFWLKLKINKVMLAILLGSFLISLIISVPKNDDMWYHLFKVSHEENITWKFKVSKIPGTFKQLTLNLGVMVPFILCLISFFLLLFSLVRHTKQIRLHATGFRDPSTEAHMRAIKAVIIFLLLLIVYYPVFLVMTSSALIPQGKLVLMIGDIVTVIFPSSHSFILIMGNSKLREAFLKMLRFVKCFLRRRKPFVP
The experiment in a line: ELISA; 0.1 ug/mL rhTAS2R9 coated on 96-well plates overnight at 4 °C, 5% milk block, 40 uL phage at 1 x 10^8 pfu/uL for 1 h at room temperature, HRP anti-M13 antibody, absorbance at 650 nm; normalised to wild-type M13KE phage.

Turning to `O=C(Nc1ccc([N+](=O)[O-])cc1O)Nc1ccccc1Br` [SB225002], in data set [1], the “Contribution to anti-tumor effects: angiogenesis” value is reported as “inhibition of angiogenesis has been cited as a contributing factor to the anti-tumor effects”. For the same molecule, the “Survival of KPC mice” value in data set [2] is given as “profoundly prolong survival in KPC mice”. Besides, the “Ki67+ area fraction (cell proliferation)” value in data set [3] is given as “significant reduction in Ki67+ area fraction”.

Consider `CC(=O)[O-].CC[N+](CC)(CC(=O)Nc1c(C)cccc1C)Cc1ccccc1` [pan-TAS2R agonist, Denatonium Acetate], for which the “Tolerability in phase one clinical trial” value in data set [4] is “well tolerated at all dose levels up to 240 mg”.

Consider HTTIPKV, for which, in data set [5], the “Specificity and selectivity for CAFs” value is “high specificity and selectivity for CAFs”. In addition, in data set [5] (signature database of 56 cell lines and tissues), the “Selectivity for CAFs in vitro and in vivo” value is “selective for CAFs across in vitro and in vivo experiments”. The “Unique band in phage pulldown” value in data set [6] is recorded as “presence of a unique band”.

On to HTTIPKV [phHTTIPKV], for which the “Increase in specific binding to rhTAS2R9 compared to phKTLLPTP” value in data set [7] stood at 2.72 fold.

In the case of APPIMSV, the “Specificity and selectivity for CAFs” value in data set [5] is “high specificity and selectivity for CAFs”.

For the molecule HTTIPKV [phage displaying HTTIPKV (phHTTIPKV)], in data set [8], the fold specific binding against phKTLLPTP (each normalised to M13KE phage) is 2.72 fold.
